Source: patent publication US7084122B2, “Use of glycosides of mono- and diacyglycerol as anti-inflammatory agents” (priority 2001, dated 2006)
Like-named read-outs stand apart in the source and are kept apart here.

Legend:
Type in all cases: cell-based
[1] = system: human peripheral blood polymorphonuclear leukocytes; assay: Chemotaxis assay, modified Boyden chamber, towards zymosan activated serum (ZAS)
Procedure: (§1) Polymorphonuclear leukocytes (PMNS) were isolated from the peripheral blood of healthy individuals in citrated glass. The cells were separated by dextran density gradient and lymphoprep separation. The purity of PMNs was greater than 98% and the cell viability as determined by trypan blue dye exclusion was greater than 98%.
Chemotaxis assay was performed using a modified Boyden chamber technique as described in Jensen, P. and Kharazmi, A., Computer-assisted image analysis assay of human neutrophil chemotaxis in vitro. J. Immunol. Methods, 144, 43–48. 1991. The purified PMNs were pre-incubated with different dilutions of the extracted galactolipid for 30 min at 37° C. Following preincubation, the chemotaxis of the cells towards the chemotactic factor zymosan activated serum (ZAS), which contains the biologically active chemoattractant C5a, were tested. The migrated cells were counted by a computer-assisted image analysis system.

[2] = system: polymorphonuclear leukocytes; assay: Cell viability by trypan blue dye exclusion; conditions: for Percent viability: DMSO control 100
Procedure: as §1
Table 6. […] Cell viability was determined by a trypan blue dye exclusion method. The cells were incubated with trypan blue. The dead cells will take up dye and appear blue under the microscope. The results are show as percent viable cells.

[3] = system: human peripheral blood polymorphonuclear leukocytes; assay: Chemiluminescence assay (oxidative burst response), stimulated with opsonized zymosan; conditions: for Chemiluminescence, Millivolts: DMSO control 664
Procedure: as §1
Chemiluminescence assay was used as a measure of oxygen radical generation by activated PMNs. The method was performed as described in Kharazmi, A., Høiby, N., Doring, G., and Valerius, N. H. Pseudomonas aeruginosa exoproteases inhibit human neutrophil chemiluminescence. Infect. Immun. 44, 587, 1984. PMNs were pre-incubated with different concentrations of the extracted galactolipid and then stimulated with opsonized zymosan. The oxidative burst response of the activated cells was measured by a luminometer (1250-LKB Wallace).

## CC/C=C\C/C=C\C/C=C\CCCCCCCC(=O)OCC(CO[C@@H]1O[C@H](CO)[C@H](O)[C@H](O)[C@H]1O)OC(=O)CCCCCCC/C=C\C/C=C\C/C=C\CC (stereo partly drawn) [GOPO, 3-β-D-galactopyranosyloxy-2-(octadeca-9Z,12Z,15Z-trienoyloxy)propanyl octadeca-9Z,12Z,15Z-trienoate]
[1]; GOPO 0.1 μg/ml, new batch (Table 4), DMSO control 42
  Cells migrated: 39
[1]; GOPO 1 μg/ml, new batch (Table 4), DMSO control 42
  Cells migrated: 15
[1]; GOPO 10 μg/ml, new batch (Table 4), DMSO control 42
  Cells migrated: 16
[1]; GOPO 50 μg/ml, first batch (Table 3), DMSO control 59
  Cells migrated: 5
[1]; GOPO 100 μg/ml, first batch (Table 3), DMSO control 59
  Cells migrated: 8
[1]; GOPO 100 μg/ml, new batch (Table 4), DMSO control 42
  Cells migrated: 12
[1]; Homo sapiens, Leukocyte, GOPO 0.1 μg/ml, new batch (Table 4), read-out: Percent inhibition
  inhibition at 0.1 µg/mL: 7%
[1]; Homo sapiens, Leukocyte, GOPO 1 μg/ml, new batch (Table 4), read-out: Percent inhibition
  inhibition at 1 µg/mL: 64%
[1]; Homo sapiens, Leukocyte, GOPO 10 μg/ml, new batch (Table 4), read-out: Percent inhibition
  inhibition at 10 µg/mL: 62%
[1]; Homo sapiens, Leukocyte, GOPO 50 μg/ml, first batch (Table 3), read-out: Percent inhibition
  inhibition at 50 µg/mL: 92%
[1]; Homo sapiens, Leukocyte, GOPO 100 μg/ml, first batch (Table 3), read-out: Percent inhibition
  inhibition at 100 µg/mL: 86%
[1]; Homo sapiens, Leukocyte, GOPO 100 μg/ml, new batch (Table 4), read-out: Percent inhibition
  inhibition at 100 µg/mL: 71%
[1]; at fairly low concentrations
  Migration of human peripheral blood leukocytes towards zymosan-activated serum (result in words): inhibited
[2]; GOPO 50 μg/ml
  Percent viability: 100%
[2]; GOPO 100 μg/ml
  Percent viability: 99%
[2]; at the tested concentrations
  Toxicity to the cells (result in words): does not appear to be toxic
[3]; GOPO 50 μg/ml
  Chemiluminescence, Millivolts: 520 Millivolts
[3]; GOPO 100 μg/ml
  Chemiluminescence, Millivolts: 339 Millivolts
[3]; at fairly low concentrations
  Chemiluminescence of human peripheral blood leukocytes (result in words): inhibited
